# Where “and” joins values, the source holds several entries; their conditions need not be identical. Equal values may be shown once. Toxic doses and inconclusive results are not listed. Square brackets hold non-standard residues; d marks the D form. Peptide text beside a SMILES is read from it. Ac5c = NC1(C(=O)O)CCCC1
# System: P388 leukemia ip, CD2F1 mice, survival T/C
# Assay: NCI In Vivo Anticancer Drug Screen. Data for tumor model P388 Leukemia (intraperitoneal) in CD2F1 (CDF1) mice
# Conditions: endpoint: median survival time, higher = longer survival
# Method in brief: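 Mice carrying the transplanted tumor received test compound or vehicle. Survival was recorded in each group, and the value is the treated-group measurement divided by that of the vehicle-treated control group.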
# [1] = dose: 25.0 mg/kg/injection, schedule: Q01DX009 (ip), vehicle: saline
# [2] = dose: 30.0 mg/kg/injection, schedule: Q01DX005 (ip), vehicle: saline
# [3] = dose: 50.0 mg/kg/injection, schedule: Q01DX009 (ip), vehicle: saline
# [4] = dose: 50.0 mg/kg/injection, schedule: Q04DX003 (ip), vehicle: saline
# [5] = dose: 100.0 mg/kg/injection, schedule: Q01DX009 (ip), vehicle: saline
# [6] = dose: 200.0 mg/kg/injection, schedule: Q01DX009 (ip), vehicle: saline
# [7] = dose: 60.0 mg/kg/injection, schedule: Q01DX005 (ip), vehicle: saline with Tween-80
# [8] = dose: 120.0 mg/kg/injection, schedule: Q01DX005 (ip), vehicle: saline with Tween-80
# [9] = dose: 50.0 mg/kg/injection, schedule: Q01DX005 (ip), vehicle: saline with Tween-80
# [10] = dose: 100.0 mg/kg/injection, schedule: Q01DX005 (ip), vehicle: saline with Tween-80
# [11] = dose: 200.0 mg/kg/injection, schedule: Q01DX005 (ip), vehicle: saline with Tween-80
# [12] = dose: 50.0 mg/kg/injection, schedule: Q01DX005 (ip), vehicle: Klucel (hydroxypropylcellulose) (HPC)
# [13] = dose: 100.0 mg/kg/injection, schedule: Q01DX005 (ip), vehicle: Klucel (hydroxypropylcellulose) (HPC)
# [14] = dose: 240.0 mg/kg/injection, schedule: Q01DX005 (ip), vehicle: saline with Tween-80
# [15] = dose: 100.0 mg/kg/injection, schedule: Q04DX003 (ip), vehicle: saline
smiles,measurement,setting,value
O=c1n(CC2CO2)c(=O)n(CC2CO2)c(=O)n1CC1CO1 (stereo not drawn),T/C,"dose: 6.25 mg/kg/injection, schedule: Q01DX009 (ip), vehicle: suspension in saline",203 % of control and 172 % of control
same,T/C,"dose: 12.5 mg/kg/injection, schedule: Q01DX009 (ip), vehicle: saline",165 % of control and 186 % of control
same,T/C,"dose: 12.5 mg/kg/injection, schedule: Q01DX009 (ip), vehicle: suspension in saline",197 % of control and 216 % of control
same,T/C,"dose: 15.0 mg/kg/injection, schedule: Q01DX005 (ip), vehicle: saline with Tween-80",200 % of control
same,T/C,"dose: 15.0 mg/kg/injection, schedule: Q01DX005 (ip), vehicle: saline",161 % of control
same,T/C,"dose: 20.0 mg/kg/injection, schedule: Q01DX009 (ip), vehicle: saline",313 % of control
same,T/C,"dose: 20.0 mg/kg/injection, schedule: Q01DX009 (sc), vehicle: saline",172 % of control and 220 % of control
same,T/C,[1],167 % of control and 205 % of control
same,T/C,"dose: 25.0 mg/kg/injection, schedule: Q01DX009 (ip), vehicle: suspension in saline",226 % of control and 281 % of control
same,T/C,"dose: 25.0 mg/kg/injection, schedule: Q01DX009 (sc), vehicle: saline",157 % of control and 265 % of control
same,T/C,[2],192 % of control
same,T/C,"dose: 30.0 mg/kg/injection, schedule: Q01DX009 (ip), vehicle: saline",272 % of control and 290 % of control and 316 % of control
same,T/C,"dose: 30.0 mg/kg/injection, schedule: Q01DX009 (sc), vehicle: saline",161 % of control and 247 % of control
same,T/C,"dose: 40.0 mg/kg/injection, schedule: Q01DX009 (sc), vehicle: saline",277 % of control
same,T/C,"dose: 40.0 mg/kg/injection, schedule: Q04DX003 (ip), vehicle: saline",184 % of control and 188 % of control and 218 % of control
same,T/C,[3],200 % of control [middle of 5 runs]
same,T/C,"dose: 50.0 mg/kg/injection, schedule: Q01DX009 (ip), vehicle: suspension in saline",100 % of control
same,T/C,[4],206 % of control and 217 % of control and 290 % of control
same,T/C,"dose: 60.0 mg/kg/injection, schedule: Q01DX001 (ip), vehicle: other",262 % of control and 271 % of control
same,T/C,"dose: 60.0 mg/kg/injection, schedule: Q01DX001 (ip), vehicle: saline",271 % of control
same,T/C,"dose: 60.0 mg/kg/injection, schedule: Q01DX001 (ip), vehicle: water",260 % of control
same,T/C,"dose: 60.0 mg/kg/injection, schedule: Q04DX003 (ip), vehicle: saline",233 % of control and 245 % of control and 300 % of control
same,T/C,"dose: 70.0 mg/kg/injection, schedule: Q01DX001 (ip), vehicle: other",231 % of control and 281 % of control
same,T/C,"dose: 70.0 mg/kg/injection, schedule: Q01DX001 (ip), vehicle: saline",274 % of control
same,T/C,"dose: 70.0 mg/kg/injection, schedule: Q01DX001 (ip), vehicle: water",184 % of control
same,T/C,"dose: 80.0 mg/kg/injection, schedule: Q01DX001 (ip), vehicle: other",291 % of control and 349 % of control
same,T/C,"dose: 80.0 mg/kg/injection, schedule: Q01DX001 (ip), vehicle: saline",291 % of control
same,T/C,"dose: 80.0 mg/kg/injection, schedule: Q01DX001 (ip), vehicle: water",223 % of control
same,T/C,"dose: 90.0 mg/kg/injection, schedule: Q01DX001 (ip), vehicle: saline",420 % of control
same,T/C,"dose: 100.0 mg/kg/injection, schedule: Q01DX001 (ip), vehicle: saline",210 % of control
same,T/C,[5],285 % of control and 156 % of control and 228 % of control
same,T/C,[6],107 % of control
COC1=CC(c2ccccc2)=N/C1=C/c1ccc[nH]1,T/C,"dose: 50.0 mg/kg/injection, schedule: Q01DX001 (ip), vehicle: Klucel (hydroxypropylcellulose) (HPC)",95 % of control
same,T/C,"dose: 100.0 mg/kg/injection, schedule: Q01DX001 (ip), vehicle: Klucel (hydroxypropylcellulose) (HPC)",100 % of control
same,T/C,"dose: 200.0 mg/kg/injection, schedule: Q01DX001 (ip), vehicle: Klucel (hydroxypropylcellulose) (HPC)",98 % of control
N=C(N)n1cc(/C=N/N=C(N)N)cn1,T/C,[7],102 % of control
same,T/C,[8],103 % of control
FC(F)(Br)C(F)(Cl)Br (stereo not drawn),T/C,[9],101 % of control
same,T/C,[10],99 % of control
same,T/C,[11],114 % of control
CC(CN(C)C)C(=O)/C=C/c1ccc(F)cc1 (stereo not drawn),T/C,[2],100 % of control
same,T/C,"dose: 60.0 mg/kg/injection, schedule: Q01DX005 (ip), vehicle: saline",101 % of control and 110 % of control
N#C/C(=C\C=C\c1ccccc1)c1nc(-c2ccc(Cl)cc2)cs1,T/C,[3],91 % of control
same,T/C,[5],91 % of control
same,T/C,[6],88 % of control
CCCCOc1cc(C(=O)NCCN(CC)CC)c2ccccc2n1,T/C,"dose: 6.25 mg/kg/injection, schedule: Q01DX009 (ip), vehicle: saline with Tween-80",100 % of control
same,T/C,"dose: 12.5 mg/kg/injection, schedule: Q01DX009 (ip), vehicle: saline with Tween-80",113 % of control
same,T/C,"dose: 25.0 mg/kg/injection, schedule: Q01DX009 (ip), vehicle: saline with Tween-80",100 % of control
COc1ccc2nc(-c3ccc(Cl)cc3)cc(C(=O)O)c2c1,T/C,[12],99 % of control
same,T/C,[13],100 % of control
same,T/C,"dose: 200.0 mg/kg/injection, schedule: Q01DX005 (ip), vehicle: Klucel (hydroxypropylcellulose) (HPC)",100 % of control
CO/C=C1\OC(=O)C=C1OC,T/C,[9],101 % of control
same,T/C,[10],108 % of control
same,T/C,[11],114 % of control
CS(=O)(=O)Nc1ccc(NC(=O)c2c3ccccc3nc3ccccc23)cc1,T/C,"dose: 12.5 mg/kg/injection, schedule: Q01DX005 (ip), vehicle: saline with Tween-80",103 % of control
same,T/C,"dose: 25.0 mg/kg/injection, schedule: Q01DX005 (ip), vehicle: saline with Tween-80",99 % of control
same,T/C,[9],109 % of control and 110 % of control
N#CC1Sc2ccccc2N1C(=O)Oc1ccccc1 (stereo not drawn),T/C,[7],102 % of control
same,T/C,[8],106 % of control
same,T/C,[14],106 % of control
CC(=O)OC1CC2CCCCC2[N+](C)(C)C1 (stereo not drawn),T/C,"dose: 25.0 mg/kg/injection, schedule: Q04DX003 (ip), vehicle: saline",106 % of control
same,T/C,[4],103 % of control
same,T/C,[15],104 % of control
Cc1ccc(-c2ccc(Nc3c4ccccc4nc4ccccc34)cc2)cn1,T/C,"dose: 25.0 mg/kg/injection, schedule: Q01DX005 (ip), vehicle: distilled water + Tween-80",106 % of control
same,T/C,"dose: 50.0 mg/kg/injection, schedule: Q01DX005 (ip), vehicle: distilled water + Tween-80",117 % of control
same,T/C,"dose: 100.0 mg/kg/injection, schedule: Q01DX005 (ip), vehicle: distilled water + Tween-80",151 % of control
same,T/C,"dose: 200.0 mg/kg/injection, schedule: Q01DX005 (ip), vehicle: distilled water + Tween-80",193 % of control
CCCCCC(/C=C/C1C(O[Si](C)(C)C(C)(C)C)CC(N(C)C)C1(C/C=C/CCCC#N)S(=O)(=O)c1ccccc1)O[Si](C)(C)C(C)(C)C (stereo not drawn),T/C,"dose: 60.0 mg/kg/injection, schedule: Q01DX005 (ip), vehicle: Klucel (hydroxypropylcellulose) (HPC)",86 % of control
same,T/C,"dose: 120.0 mg/kg/injection, schedule: Q01DX005 (ip), vehicle: Klucel (hydroxypropylcellulose) (HPC)",86 % of control
O=C1C=CC(=CC=C2C=CN(CCCCCCO)C=C2)C=C1,T/C,[7],105 % of control
same,T/C,[8],116 % of control
same,T/C,[14],122 % of control
O=C(Nc1cccc(Cl)c1)N1CC1,T/C,"dose: 50.0 mg/kg/injection, schedule: Q01DX009 (ip), vehicle: saline with Tween-80",105 % of control
same,T/C,"dose: 100.0 mg/kg/injection, schedule: Q01DX009 (ip), vehicle: saline with Tween-80",113 % of control
O=C1c2ccccc2C(C2c3ccccc3C(=O)c3cc(Br)ccc32)c2ccc(Br)cc21 (stereo not drawn),T/C,"dose: 12.5 mg/kg/injection, schedule: Q01DX005 (ip), vehicle: Klucel (hydroxypropylcellulose) (HPC)",88 % of control
same,T/C,"dose: 25.0 mg/kg/injection, schedule: Q01DX005 (ip), vehicle: Klucel (hydroxypropylcellulose) (HPC)",97 % of control
same,T/C,[12],90 % of control
same,T/C,[13],86 % of control
COC(=O)Nc1cn2ccc(Sc3ccccc3)cc2n1,T/C,"dose: 50.0 mg/kg/injection, schedule: Q01DX009 (ip), vehicle: Klucel (hydroxypropylcellulose) (HPC)",103 % of control and 109 % of control
same,T/C,"dose: 100.0 mg/kg/injection, schedule: Q01DX009 (ip), vehicle: Klucel (hydroxypropylcellulose) (HPC)",105 % of control and 122 % of control
NCC(=O)NC1(C(=O)O)CCCC1 (H-Gly-[Ac5c]-OH),T/C,[1],118 % of control
same,T/C,[3],118 % of control
same,T/C,[5],122 % of control
same,T/C,[15],95 % of control
same,T/C,[6],105 % of control
same,T/C,"dose: 200.0 mg/kg/injection, schedule: Q04DX003 (ip), vehicle: saline",100 % of control
same,T/C,"dose: 400.0 mg/kg/injection, schedule: Q01DX009 (ip), vehicle: saline",93 % of control
same,T/C,"dose: 400.0 mg/kg/injection, schedule: Q04DX003 (ip), vehicle: saline",108 % of control
